Measurements: US8975234B2, “Anti-bacterial infection, inflammation, and leukemia composition and use thereof” (priority 2011, dated 2015)

Columns and labels:
[1] = test system: LPS-induced PGE2 in RAW264.7 cells; test: Prostaglandin E2 (PGE2) assay; assay type: cell-based, mouse; settings: 25 or 50 μM added 30 minutes before LPS
Method: One milliliter (1 mL) of murine macrophage cell line RAW264.7 (4×10^5 cells/mL) was seeded on a 12-well plate overnight. After overnight incubation, cells were serum starved in DMEM medium containing 2% Fetal Bovine Serum (FBS) for 3 hours. Then, Tellimagrandin II was added so that final concentrations of 10, 25 and 50 μM were obtained. Thus, after a 30-min incubation, murine macrophage cells were treated with LPS for 16 h and the cell culture supernatant was collected. Cell-free supernatants were diluted and PGE 2 in culture supernatants were detected by using a PGE2 assay kit (R&D system). The purpose of the study was to evaluate the LPS-induced PGE2 expression by co-treating with Tellimagrandin II.

[2] = test system: MSSA (Methicillin-susceptible Staphylococcus aureus); test: Minimum inhibitory concentration (broth microdilution) and FIC index; assay type: cell-based; settings: Staphylococcus aureus, MSSA, read-out: Minimum inhibitory concentration

O=C(OC1O[C@@H]2COC(=O)c3cc(O)c(O)c(O)c3-c3c(cc(O)c(O)c3O)C(=O)O[C@H]2[C@H](OC(=O)c2cc(O)c(O)c(O)c2)[C@H]1OC(=O)c1cc(O)c(O)c(O)c1)c1cc(O)c(O)c(O)c1 (some centres unmarked) [Tellimagrandin II]
expression of PGE2 [1]: significantly reduced the expression of PGE2 | MIC [2]: 64 µg/mL
